Assay results as given in patent US12077503B2, “Substituted cyclic amides and their use as herbicides” (FMC CORPORATION, priority 2015, dated 2024).
Read-outs that look alike come from different tables or passages of the source.

Columns and labels:
Format in all cases: in vivo
Kochia (Kochia scoparia) [1] = assay: Test A preemergence; conditions: Bassia scoparia, pre-emergence, 240 h, preemergence; for pest or weed control at 125 g/ha: 125 g ai/ha; for pest or weed control at 500 g/ha: 500 g ai/ha
Outline: (§1)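 Compounds were formulated in a non-phytotoxic solvent mixture with surfactant and applied as a preemergence directed soil spray after seeding, or sprayed postemergence over plants 2 to 10 cm tall at the one- to two-leaf stage. Evaluation after about 10 d compared treated with untreated controls, using a scale from 0 (no effect) to 100 (complete control).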

[2] = system: Galium (catchweed bedstraw, Galium aparine); assay: Test A postemergence; conditions: Galium, post-emergence, 240 h; for pest or weed control at 125 g/ha: 125 g ai/ha, postemergence
Outline: as §1

Kochia (Kochia scoparia) [3] = assay: Test A postemergence; conditions: Bassia scoparia, post-emergence, 240 h; for pest or weed control at 125 g/ha: 125 g ai/ha, postemergence
Outline: as §1

[4] = system: barnyardgrass (Echinochloa crus-galli); assay: Test A postemergence; conditions: Echinochloa crus-galli, post-emergence, 240 h; for pest or weed control at 125 g/ha: 125 g ai/ha, postemergence
Outline: as §1

[5] = system: blackgrass (Alopecurus myosuroides); assay: Test A postemergence; conditions: Alopecurus myosuroides, post-emergence, 240 h; for pest or weed control at 125 g/ha: 125 g ai/ha, postemergence
Outline: as §1

corn (Zea mays) = assay: Test A postemergence; conditions: Zea mays, post-emergence, 240 h
Outline: as §1

[6] = system: giant foxtail (Setaria faberii); assay: Test A postemergence; conditions: Setaria faberi, post-emergence, 240 h; for pest or weed control at 125 g/ha: 125 g ai/ha, postemergence
Outline: as §1

[7] = system: pigweed (Amaranthus retroflexus); assay: Test A postemergence; conditions: Amaranthus retroflexus, post-emergence, 240 h; for pest or weed control at 125 g/ha: 125 g ai/ha, postemergence
Outline: as §1

[8] = system: ragweed (common ragweed, Ambrosia elatior); assay: Test A postemergence; conditions: Ambrosia artemisiifolia, post-emergence, 240 h; for pest or weed control at 125 g/ha: 125 g ai/ha, postemergence
Outline: as §1

[9] = system: ryegrass, Italian (Italian ryegrass, Lolium multiflorum); assay: Test A postemergence; conditions: Lolium multiflorum, post-emergence, 240 h; for pest or weed control at 125 g/ha: 125 g ai/ha, postemergence
Outline: as §1

[10] = system: wheat (Triticum aestivum); assay: Test A postemergence; conditions: Triticum aestivum, post-emergence, 240 h; for plant injury at 125 g/ha: 125 g ai/ha, postemergence
Outline: as §1

[11] = system: barnyardgrass (Echinochloa crus-galli); assay: Test B flooded paddy test; conditions: Echinochloa crus-galli, 250 g ai/ha, Flood, read-out: Barnyardgrass plant response rating
Outline: (§2)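 Evaluation by eye, against controls, occurred 13–15 d post-treatment in a greenhouse, using a 0 (no effect) to 100 (complete control) scale. Application was into the paddy water, 3 cm deep over the soil, on 2-leaf plants.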

[12] = system: ducksalad (Heteranthera limosa); assay: Test B flooded paddy test; conditions: Heteranthera limosa, 250 g ai/ha, Flood, read-out: Ducksalad plant response rating
Outline: as §2

rice (Oryra sativa) = assay: Test B flooded paddy test; conditions: Oryza sativa, 250 g ai/ha, Flood, read-out: Rice plant response rating
Outline: as §2

[13] = system: sedge, umbrella (small-flower umbrella sedge, Cyperus difformis); assay: Test B flooded paddy test; conditions: Cyperus difformis, 250 g ai/ha, Flood, read-out: Sedge, Umbrella plant response rating
Outline: as §2

[14] = 0 to 100 scale where 0 is no effect and 100 is complete control
[15] = scale of 0 to 100 where 0 is no effect and 100 is complete control

Question: What does the source list for `Cc1cc([C@H]2CNC(=O)[C@@H]2C(=O)Nc2ccccc2S(C)(=O)=O)ccc1Cl` [Compound 1246]?
Answer: pest or weed control at 125 g/ha (Kochia (Kochia scoparia) [1]; visual injury rating, 0 to 100 scale where 0 is no effect and 100 is complete control, approximately 10 d, read-out: Kochia plant response rating): 60%; pest or weed control at 500 g/ha (Kochia (Kochia scoparia) [1]; 0 to 100 scale where 0 is no effect and 100 is complete control, read-out: Kochia plant response rating): 80%; pest or weed control at 125 g/ha ([2]; visual injury vs untreated controls after approx. 10 d, 0 = no effect, 100 = complete control, read-out: Galium plant response rating (0 to 100 scale)): 50%; pest or weed control at 500 g/ha ([2]; Postemergence, 500 g ai/ha, visual injury, 0 to 100 scale (0 no effect, 100 complete control), approx. 10 d, read-out: Plant response rating, Galium): 60%; pest or weed control at 125 g/ha (Kochia (Kochia scoparia) [3]; visual injury vs untreated controls after approx. 10 d, 0 = no effect, 100 = complete control, read-out: Kochia plant response rating (0 to 100 scale)): 0%; pest or weed control at 500 g/ha (Kochia (Kochia scoparia) [3]; Postemergence, 500 g ai/ha, visual injury, 0 to 100 scale (0 no effect, 100 complete control), approx. 10 d, read-out: Plant response rating, Kochia): 20%; pest or weed control at 125 g/ha ([4]; visual injury vs untreated controls after approx. 10 d, 0 = no effect, 100 = complete control, read-out: Barnyardgrass plant response rating (0 to 100 scale)): 50%; pest or weed control at 500 g/ha ([4]; Postemergence, 500 g ai/ha, visual injury, 0 to 100 scale (0 no effect, 100 complete control), approx. 10 d, read-out: Plant response rating, Barnyardgrass): 80%; pest or weed control at 125 g/ha ([5]; visual injury vs untreated controls after approx. 10 d, 0 = no effect, 100 = complete control, read-out: Blackgrass plant response rating (0 to 100 scale)): 0%; pest or weed control at 500 g/ha ([5]; Postemergence, 500 g ai/ha, visual injury, 0 to 100 scale (0 no effect, 100 complete control), approx. 10 d, read-out: Plant response rating, Blackgrass): 40%; plant injury at 125 g/ha (corn (Zea mays); 125 g ai/ha, postemergence, visual injury vs untreated controls after approx. 10 d, 0 = no effect, 100 = complete control, read-out: Corn plant response rating (0 to 100 scale)): 0%; Corn plant response rating (crop injury, 0 = no effect, 100 = complete kill) at 500 g/ha (corn (Zea mays); Postemergence, 500 g ai/ha, visual injury, 0 to 100 scale (0 no effect, 100 complete control), approx. 10 d): 40%; pest or weed control at 125 g/ha ([6]; visual injury vs untreated controls after approx. 10 d, 0 = no effect, 100 = complete control, read-out: Foxtail, Giant plant response rating (0 to 100 scale)): 20%; pest or weed control at 500 g/ha ([6]; Postemergence, 500 g ai/ha, visual injury, 0 to 100 scale (0 no effect, 100 complete control), approx. 10 d, read-out: Plant response rating, Foxtail, Giant): 20%; pest or weed control at 125 g/ha ([7]; visual injury vs untreated controls after approx. 10 d, 0 = no effect, 100 = complete control, read-out: Pigweed plant response rating (0 to 100 scale)): 0%; pest or weed control at 500 g/ha ([7]; Postemergence, 500 g ai/ha, visual injury, 0 to 100 scale (0 no effect, 100 complete control), approx. 10 d, read-out: Plant response rating, Pigweed): 20%; pest or weed control at 125 g/ha ([8]; visual injury vs untreated controls after approx. 10 d, 0 = no effect, 100 = complete control, read-out: Ragweed plant response rating (0 to 100 scale)): 10%; pest or weed control at 500 g/ha ([8]; Postemergence, 500 g ai/ha, visual injury, 0 to 100 scale (0 no effect, 100 complete control), approx. 10 d, read-out: Plant response rating, Ragweed): 60%; pest or weed control at 125 g/ha ([9]; visual injury vs untreated controls after approx. 10 d, 0 = no effect, 100 = complete control, read-out: Ryegrass, Italian plant response rating (0 to 100 scale)): 0%; pest or weed control at 500 g/ha ([9]; Postemergence, 500 g ai/ha, visual injury, 0 to 100 scale (0 no effect, 100 complete control), approx. 10 d, read-out: Plant response rating, Ryegrass, Italian): 0%; plant injury at 125 g/ha ([10]; visual injury vs untreated controls after approx. 10 d, 0 = no effect, 100 = complete control, read-out: Wheat plant response rating (0 to 100 scale)): 0%; plant injury at 500 g/ha ([10]; Postemergence, 500 g ai/ha, visual injury, 0 to 100 scale (0 no effect, 100 complete control), approx. 10 d, read-out: Plant response rating, Wheat): 40%; pest or weed control at 250 g/ha [11, 14]: 0%; pest or weed control at 250 g/ha [12, 14]: 100%; pest or weed control at 250 g/ha (rice (Oryra sativa); [14]): 0%; pest or weed control at 250 g/ha [13, 14]: 0%

Question: With `CN1C[C@H](c2cc(F)cc(F)c2)[C@@H](C(=O)Nc2ccc(F)cc2C(F)(F)F)C1=O` [Compound 758] as the compound, how does the pest or weed control at 125 g/ha (Kochia (Kochia scoparia) [1]; visual rating after approx. 10 d, 0 to 100 scale where 0 is no effect and 100 is complete control, read-out: Plant response rating, Kochia) read?
Answer: 0%

Question: And the pest or weed control at 500 g/ha (Kochia (Kochia scoparia) [1]; 0 to 100 scale, 0 = no effect, 100 = complete control, read-out: Plant response rating, Kochia)?
Answer: 60%

Question: What about the pest or weed control at 125 g/ha ([2]; visual injury after approximately 10 d, 0 to 100 scale (0 no effect, 100 complete control), read-out: Plant response rating, Galium) of the same compound?
Answer: 40%

Question: And the pest or weed control at 125 g/ha (Kochia (Kochia scoparia) [3]; visual injury after approximately 10 d, 0 to 100 scale (0 no effect, 100 complete control), read-out: Plant response rating, Kochia)?
Answer: 0%

Question: What about the pest or weed control at 125 g/ha ([4]; visual injury after approximately 10 d, 0 to 100 scale (0 no effect, 100 complete control), read-out: Plant response rating, Barnyardgrass) of the same compound?
Answer: 70%

Question: What about the pest or weed control at 125 g/ha ([5]; visual injury after approximately 10 d, 0 to 100 scale (0 no effect, 100 complete control), read-out: Plant response rating, Blackgrass) of the same compound?
Answer: 0%

Question: What about the Corn plant response rating (crop injury, 0 = no effect, 100 = complete kill) at 125 g/ha (corn (Zea mays); 125 g ai/ha, postemergence, visual injury after approximately 10 d, 0 to 100 scale (0 no effect, 100 complete control)) of the same compound?
Answer: 20%

Question: And the pest or weed control at 125 g/ha ([6]; visual injury after approximately 10 d, 0 to 100 scale (0 no effect, 100 complete control), read-out: Plant response rating, Foxtail, Giant)?
Answer: 80%

Question: And the pest or weed control at 125 g/ha ([7]; visual injury after approximately 10 d, 0 to 100 scale (0 no effect, 100 complete control), read-out: Plant response rating, Pigweed)?
Answer: 0%

Question: And the pest or weed control at 125 g/ha ([8]; visual injury after approximately 10 d, 0 to 100 scale (0 no effect, 100 complete control), read-out: Plant response rating, Ragweed)?
Answer: 0%

Question: And the pest or weed control at 125 g/ha ([9]; visual injury after approximately 10 d, 0 to 100 scale (0 no effect, 100 complete control), read-out: Plant response rating, Ryegrass, Italian)?
Answer: 0%

Question: And the plant injury at 125 g/ha ([10]; visual injury after approximately 10 d, 0 to 100 scale (0 no effect, 100 complete control), read-out: Plant response rating, Wheat)?
Answer: 0%

Question: What about the pest or weed control at 250 g/ha [11, 15] of the same compound?
Answer: 45%

Question: And the pest or weed control at 250 g/ha [12, 15]?
Answer: 100%

Question: And the pest or weed control at 250 g/ha (rice (Oryra sativa); [15])?
Answer: 0%

Question: What about the pest or weed control at 250 g/ha [13, 15] of the same compound?
Answer: 0%
